This is an account of results in EP4818175A1, “NOVEL ANTIVIRAL COMPOUNDS” (Consejo Superior de Investigaciones Científicas (CSIC), priority 2025, dated 2026).

This assay deals with HSV-1 K26-GFP. As to the kind of experiment: microbe, parasite or virus in culture. The conditions noted are these: Human alphaherpesvirus 1, Vero, 24 h; for inhibition at 20 µM: read-out: percentage inhibition at the highest concentration tested (20 µM). Format: cell-based, HSV-1 (F strain).

Molecules are shown by their SMILES.

Broadly, the EC50 is the concentration needed to bring the measured effect to its halfway point. `Nc1nc2c(ncn2COCCO)c(=O)[nH]1` [Acyclovir (ACV), Acyclovir, reference compound] gave an EC50 of 0.68 ± 0.11 µM.
As for `O=C1c2c(O)c(=O)ccn2N([C@@H]2c3ccccc3SCc3c2ccc(F)c3F)[C@@H]2COCCN12` [Baloxavir acid, reference compound], the EC50 is greater than 20 µM and the inhibition at 20 µM was 40.7%.
For `COC(=O)OCOc1c2n(ccc1=O)N([C@@H]1c3ccccc3SCc3c1ccc(F)c3F)[C@@H]1COCCN1C2=O` [Baloxavir marboxil, reference compound] the same measures were greater than 20 µM and 13.7%.
`O=C1c2c(O)c(=O)ccn2N(Cc2ccc(C(F)(F)F)cc2)[C@@H]2COCCN12` [Compound 7, (R)-7-hydroxy-12-(4-(trifluoromethyl)benzyl)-3,4,12,12a-tetrahydro-1H-[1,4]oxazino[3,4-c]pyrido[2,1-f][1,2,4]triazine-6,8-dione] had an EC50 of 3.4 ± 2.7 µM.
Same read-out and setting: to `O=C1c2c(O)c(=O)ccn2N(Cc2ccc(Cl)c(F)c2)[C@@H]2COCCN12` [Compound 10, (R)-12-(4-chloro-3-fluorobenzyl)-7-hydroxy-3,4,12,12a-tetrahydro-1H-[1,4]oxazino[3,4-c]pyrido[2,1-f][1,2,4]triazine-6,8-dione] belongs 10.3 ± 0.9 µM.
As to `O=C1c2c(O)c(=O)ccn2N(Cc2ccc(-c3ccco3)cc2)[C@@H]2COCCN12` [Compound 18, (R)-12-(4-(furan-2-yl)benzyl)-7-hydroxy-3,4,12,12a-tetrahydro-1H-[1,4]oxazino[3,4-c]pyrido[2,1-f][1,2,4]triazine-6,8-dione], the EC50 was greater than 20 µM and the inhibition at 20 µM was 48.5%.
For the molecule `O=C1c2c(O)c(=O)ccn2N(Cc2ccc(-c3ccccc3)cc2)[C@@H]2COCCN12` [Compound 19, (R)-12-([1,1'-biphenyl]-4-yimethyl)-7-hydroxy-3,4,12,12a-tetrahydro-1H-[1,4]oxazino[3,4-c]pyrido[2,1-f][1,2,4]triazine-6,8-dione], the 50% effective concentration (EC50) is 2.8 ± 1.1 µM.
The same measure, in the same setting: to `O=C1c2c(O)c(=O)ccn2N(Cc2ccc(-c3ccc(F)cc3)cc2)[C@@H]2COCCN12` [Compound 29, (R)-12-((4'-fluoro-[1,1'-biphenyl]-4-yl)methyl)-7-hydroxy-3,4,12,12a-tefrahydro-1H-[1,4]oxazino[3,4-c]pyrido[2,1-f][1,2,4]triazine-6,8-dione] belongs 4 ± 1.3 µM; to `O=C1c2c(O)c(=O)ccn2N(Cc2ccc(-c3ccc(OC(F)(F)F)cc3)cc2)[C@@H]2COCCN12` [Compound 32, (R)-7-hydroxy-12-((4'-(trifluoromethoxy)-[1,1'-biphenyl]-4-yl)methyl)-3,4,12,12a-tetrahydro-1H-[1,4]oxazino[3,4-c]pyrido[2,1-f][1,2,4]triazine-6,8-dione], 8.9 ± 1 µM.
`CC(C)c1ccc(O)c(O)c(=O)c1` [β-thujaplicinol, reference compound] gave an EC50 of 3.9 ± 0.9 µM.
